{
  "source": "patent US6458840B2",
  "about": "“Use of valproic acid analog for the treatment and prevention of migraine and affective illness” (American Biogenetic Sciences, Inc., priority 1998, dated 2002)",
  "key": {"PTZ induced seizures": {"system": "PTZ induced seizures", "details": "literature / earlier application; cited from earlier work"}, "[1]": {"system": "amygdala-kindled seizures", "details": "rats; cited from earlier work"}, "[2]": {"system": "amygdala-kindled seizures", "experiment": "Amygdala-kindling in fully kindled rats (anti-seizure effects)", "type": "in vivo, rat", "details": "100 mg/kg", "protocol": "For implantation of stimulation and recording electrodes, rats were anesthetized with chloral hydrate (360 mg/kg i.p.) and received stereotaxic implantation (according to the surgery methods described in the atlas of Paxinos and Watson [1986]) of one bipolar electrode in the right basolateral amygdala. Coordinates for electrode implantation were AP-2.2 mm, L-4.8 mm, V-8.5 mm. All coordinates were measured from bregma. Skull screws served as the indifferent reference electrode. The electrode assembly was attached to the skull by dental acrylic cement. After a postoperative period of 2 weeks, constant current stimulations (500 μA, 1 ms, monophasic square-wave pulses, 50/s for 1 s) were delivered to the amygdala at intervals of 1/day until ten stage 5 seizures were elicited. The electrical susceptibility of the stimulated region (threshold for induction of afterdischarges) was recorded on the first day of the experiment (initial afterdischarge threshold) as well as after kindling acquisition (with an interval of at least 4 days after the tenth stage 5 seizure) using an ascending staircase procedure. The initial current intensity was 1 OμA, and the current intensity was increased in steps of about 20% of the previous current at intervals of 1 min until an afterdischarge of at least 3 s duration was elicited. […] In addition to afterdischarge threshold, the following parameters of kindled seizures were measured in fully-kindled rats after stimulation with the afterdischarge threshold current: seizure severity was classified according to Racine (1972): 1 -immobility, eye closure, twitching of vibrissae, sniffing, facial clonus; 2-head nodding associated with more severe facial clonus; 3-clonus of one forelimb; 4-rearing, often accompanied by bilateral forelimb clonus; 5-rearing with loss of balance and falling accompanied by generalized clonic seizures. Seizure duration 1 (SD 1) was the duration of limbic (stage 1-2) and/or motor seizures (stage 3-5). Seizure duration 2 (SD 2) included the time of limbic and/or motor seizures plus the adjacent time of immobility. Afterdischarge duration 1 (ADD 1) was the time of spikes in the EEG recorded from the site of stimulation with a frequency of at least 1 /s. Afterdischarge duration 2 (ADD 2) was the total time of spikes occurring in the EEG including those, which followed the ADD 1 with lower frequency and amplitude.\nThe anti-seizure effects of 2-propyl-4-hexynoic acid and valproate in fully kindled rats were determined in a group of 8-9 rats (no. 784, 785, 787, 788, 789, 790 [had to be taken out of the trial, because of loss of electrodes], 791, 792, 793) with reproducible stage 5 seizures.\nDrugs were injected 15 min prior to stimulation intraperitoneally. Control experiments were always performed 2-3 days before each drug experiment. For control determinations, rats received i.p. injections of vehicle (saline) with the pretreatment time of the respective drug experiment. For all drug experiments, at least 4 days were interposed between 2 drug injections in order to avoid alterations in drug potency due to cumulation or tolerance.\nThe significance of differences between pre-drug control recordings and recordings after drug injection was calculated by the Wilcoxon signed rank test for paired replicates (SigmaStat for Windows, version 1.0)."}, "[3]": {"experiment": "Rotarod test (neurological deficit) in kindled rats", "type": "in vivo, rat", "details": "100 mg/kg; 13′; all 8 animals +", "protocol": "(§1) Tests included open field observations, rotarod test and body temperature. Tests were always performed in the same manner in control and drug experiments at two different times, just before application of drug or vehicle and 13 minutes after application.\nThe rotarod test was carried out with a rod of 6 cm diameter and rotation speed of 8 r.p.m. Neurological deficit was indicated by inability of the animals to maintain their equilibrium for at least 1 min on the rotating rod. Rats had to be trained prior to drug experiments to maintain their balance on the rod. After drug or vehicle treatment, rats which were not able to maintain their equilibrium on the rod for 1 minute were put again on the rod twice."}, "Rectal body temperature": {"experiment": "Rectal body temperature", "type": "in vivo, rat", "details": "100 mg/kg; 13′ post appl.; mean of 8 rats; ante appl. 38.71", "protocol": "Female Wistar rats (Harlan-Winkelmann, Borchen, Germany) were obtained at an age of 11-12 weeks (body weight 180-200 g). Female rats were employed because they are known to eliminate drugs less rapidly than do males, which was thought to be an advantage for drug potency studies. Rats were kept separately in plastic cages at controlled temperature (23° C.) and humidity (about 50 %) with a 12-h light cycle beginning at 7 a.m. They received standard diet (Altromin; Lage, F.R.G.), tap water and libitum. All drug injections were done in the afternoon at an ambient temperature of 23-25° C. The regular protocol started by taking the rats out of their individual cage, weighing them and joining them together on a table with six open plastic cages for better behavioral observations. Therefore animals were able to move from one cage to another and either to have social contact or to avoid it. After a short adaptation time of approximately 15 minutes, rectal body temperatures were recorded followed by drug or vehicle application.\nas §1\nIn addition to these quantitative estimations of neurological deficit, behavioral alterations observed after administration of 2-propyl-4-hexynoic acid and valproate noted in the cage and by placing the animals in an open field of 90-100 cm diameter. Muscle tone was estimated by palpation of the abdomen. The extent of deficits in behavior after administration of the compounds was determined by a rating system (Loscher et al. 1987). In short, animals were taken out of the cage, placed in an open field, observed for about 1 minute and rated separately for ataxia, abducted hindlimbs, reduced righting, flat body posture, circling, Straub tail, piloerection, hypolocomotion and hyperlocomotion (abdominal muscle tone was evaluated by palpation at the end of the period of observation). All other parameters except ataxia were scored from 0 to 3: 0-absent; 1-equivocal; 2-present; 3- intense. For ataxia (06): 1 -slight ataxia in hind-legs (tottering of the hind quarters); 2-more pronounced ataxia with dragging of hind legs; 3-further increase of ataxia and more pronounced dragging of hind legs; 4-marked ataxia, animals lose balance during forward locomotion; 5- very marked ataxia with frequent loss of balance during forward locomotion; 6-permanent loss of righting reflexes, but animal still attempts to move forward. Rectal body temperature was measured by an electronic thermometer. Body weight of the animals was recorded once daily before drug injection. Significance of differences in behavior between pre-drug and post-drug data determined in the same group of animals was calculated by the Wilcoxon signed rank test for paired replicates and for body temperature by Student's paired t-test (SigmaStat for Windows, version 1.0). Differences in body temperature were always compared only within the experimental day with the pre-drug time as control to one post-drug time."}},
  "data": [
    {"smiles": "NC(=O)N1c2ccccc2C=Cc2ccccc21", "note": "[carbamazepine]", "values": [
      {"measurement": "antiepileptic effect in PTZ test, in words", "setting": "PTZ induced seizures", "value": "less effective"},
      {"measurement": "effect on complete, late-stage or spontaneous kindled seizures, in words", "setting": "[1]", "value": "suppresses complete amygdala-kindled seizures"},
      {"measurement": "effect on development / early stages of kindled seizures, in words", "setting": "[1]", "value": "ineffective in preventing their development"}
    ]},
    {"smiles": "O=C1NC(=O)C(c2ccccc2)(c2ccccc2)N1", "note": "[Phenytoin]", "values": [
      {"measurement": "effect on complete, late-stage or spontaneous kindled seizures, in words", "setting": "[1]", "value": "effective block of spontaneous seizures"},
      {"measurement": "effect on development / early stages of kindled seizures, in words", "setting": "[1]", "value": "not seizures elicited during the early stages of kindling"}
    ]},
    {"smiles": "CC#CCC(CCC)C(=O)O", "note": "(stereo not drawn) [2-propyl-4-liexynoic acid]", "values": [
      {"measurement": "afterdisch.thresh. (ADT; μA)", "setting": "[2]; mean (X) of 8 kindled rats, control mean 48.50", "value": 126.25, "unit": "μA"},
      {"measurement": "seizure severity (SS; score)", "setting": "[2]; mean of 8 rats, control mean 5.00", "value": 3.63, "unit": "score"},
      {"measurement": "seizure duration1 (SD1; sec)", "setting": "[2]; mean of 8 rats, control mean 83.00", "value": 46.50, "unit": "s"},
      {"measurement": "afterdisch.dur.1 (ADD1;sec)", "setting": "[2]; mean of 8 rats, control mean 86.00", "value": 62.75, "unit": "s"},
      {"measurement": "afterdisch.dur.2 (ADD2; sec)", "setting": "[2]; mean of 8 rats, control mean 86.88", "value": 62.75, "unit": "s"},
      {"measurement": "seizure duration2 (SD2; sec)", "setting": "[2]; mean of 8 rats, control mean 258.75", "value": 105.63, "unit": "s"},
      {"measurement": "rotarod-test, day of exper.", "setting": "[3]", "value": 0, "unit": "%"},
      {"measurement": "BODY TEMP. (° C.) day of exper. 13′ post appl.", "setting": "Rectal body temperature", "value": 38.31, "unit": "°C"}
    ]},
    {"smiles": "CN1C(=O)CN=C(c2ccccc2)c2cc(Cl)ccc21", "note": "[Diazepam]", "values": [
      {"measurement": "effect on complete, late-stage or spontaneous kindled seizures, in words", "setting": "[1]", "value": "not effective during the late stages"},
      {"measurement": "effect on development / early stages of kindled seizures, in words", "setting": "[1]", "value": "effective in inhibiting the earlier stages of seizure development"}
    ]}
  ]
}
